Data on 5 compounds can be found in patent US20200224136A1, “INTESTINE-CHIP: DIFFERENTIAL GENE EXPRESSION MODEL” (priority 2019, published 2020).

Series [1] relates to Small Intestinal Organoids. To be noted: 30 uM DCA, 2 hours; GLP-1 (Active) assay; cited from earlier work.
Series [2] deals with Mixed primary cultures (Colon). To be noted: 10 mM, 2-4 hours; Active GLP-1 ELISA-kit (Millipore); cited from earlier work.
For series [3], the system named is Mixed primary cultures (upper half of SI). To be noted: 10 mM, 2-4 hours; Active GLP-1 ELISA-kit (Millipore); cited from earlier work. For orientation: In an ELISA, binding on a coated surface is turned into a signal by an enzyme label.
Series [4] relates to Endoscopic duodenal biopsies. To be noted: 300 mM, Intraduodenal Glucose Infusion, 30 min; GLP-1 (Active) ELISA Kit (Millipore); cited from earlier work.
A further series has as its system GLUTag Cells. The settings on record: 250 uM, 36 minutes; Active GLP-1 (ver. 2) Assay Kit (Mesoscale Discovery); cited from earlier work.
For series [5], the target named is T1, MDR1 (P-gp) (Homo sapiens, UniProt P08183). The settings on record: 22 μM. As to the method:
(§1) To evaluate the applicability of this system for the studies of pharmacology related questions we assessed the presence and localization of major intestinal drug transporters in Duodenum-Chips established from the tissue of 3 different donors by qRT-PCR and immunofluorescent imaging.
(§2) The transporter activity of MDR-1/P-gp was assessed using the MDR1 Efflux Assay Kit (e.g., ECM910, Millipore), as per manufacturer's instructions. […] Intracellular accumulation of dye, was detected by fluorescent imaging (Olympus IX83) and measured in the presence and absence of MDR-1 specific inhibitor vinblastine (22 μM). At least three independent experiments were performed for Caco2 Intestine-Chips and Duodenum-Chips, each using chips established from a different donor of biopsy-derived organoids. At least three different chips were used per condition, images of each were taken at three different fields of view, digitally processed and quantified using Fiji software.

Series [6] deals with T1, MDR1 (P-gp). The settings on record: 22 μM. As to the method: as §1, §2
The source holds these as a separate data set.

Series [7] relates to Ileum-Chip. Nature of the series: TNF-α induced inflammation in Ileum-Chip: chemokine release (ELISA) and I-CAM1/MadCAM1 expression. It is filed as cell-based, human. Also noted: Apical CXCL11 (1-TAC) / Apical CCL20 (MIP-3 alpha) / Basal CCL25 (TECK) / Basal CXCL8 (IL-8) / Basal CXCLIO (IP-10) / Basal CXCL11 (1-TAC) / Basal CCL20 (MIP-3 alpha) / Apical CCL25 (TECK) / Apical CXCL8 (IL-8) / Apical CXCLIO (IP-10): unit not given here. The source says:
(§3) TNFα induces increased membrane expression of I-CAM1 and MadCAM1 in intestinal microvascula endothelium.
(§4) Identification of MadCAM1 and characterization of microvascular response to inflammation in Ileum-Chip. Inflammation-Induced Expression of I-CAM1 and MadCAM1 in Ileum-Chip. Read-outs: mRNA expression of vascular adhesion molecules (I-CAM1, MadCAM1); Immunofluorescent detection of I-CAM1 and MadCAM1; Epithelial and vascular release of inflammatory chemokines using ELISA (Meso Scale Discovery). FIG. 13. FIG. 14.
Summary of Evaluation of Microvascular Function in Ileum-Chip.

In series [8] the test system is Ileum-Chip. The series can be described thus: Intestinal barrier function of Ileum-Chip under TNF-α. It is filed as cell-based, human. To be noted: vascular exposure, 100 U/ml (~2 ng/ml). Here is the method:
As one example, to evaluate the integrity of the intestinal barrier 3 kDa Cascade Blue dextran (Sigma, D7132) was added to the epithelial compartment of the Duodenum-Chip at 0.1 mg/ml on the day of connecting a microfluidic device to flow, e.g., see exemplary timelines. Effluents of the endothelial compartment were sampled 3 hours after the addition of a dye, up to 24 hours, up to 48 hours, up to 72 hours, or at 48 hour intervals until the end of the assay, in order to determine the concentration of dye that has diffused through the membrane.
The apparent paracellular permeability (Papp) was calculated based on a standard curve and using the following formula: […]
as §3

The subject of series [9] is intestinal microvascular endothelium. The series can be described thus: TNF-α stimulation of microvasculature alone: chemokine release. The settings on record: TNF-α 100 U/ml, n = 1, 4 chips/condition. Also noted: unit not given here. The series is classed as cell-based, human.
Description: as §4

Where [10] appears, read: TNF-α 100 U/ml, n = 1, 4 chips/condition.

Where two headings read alike, the source gives them in different places.

T1 sequence (P08183 whole entry): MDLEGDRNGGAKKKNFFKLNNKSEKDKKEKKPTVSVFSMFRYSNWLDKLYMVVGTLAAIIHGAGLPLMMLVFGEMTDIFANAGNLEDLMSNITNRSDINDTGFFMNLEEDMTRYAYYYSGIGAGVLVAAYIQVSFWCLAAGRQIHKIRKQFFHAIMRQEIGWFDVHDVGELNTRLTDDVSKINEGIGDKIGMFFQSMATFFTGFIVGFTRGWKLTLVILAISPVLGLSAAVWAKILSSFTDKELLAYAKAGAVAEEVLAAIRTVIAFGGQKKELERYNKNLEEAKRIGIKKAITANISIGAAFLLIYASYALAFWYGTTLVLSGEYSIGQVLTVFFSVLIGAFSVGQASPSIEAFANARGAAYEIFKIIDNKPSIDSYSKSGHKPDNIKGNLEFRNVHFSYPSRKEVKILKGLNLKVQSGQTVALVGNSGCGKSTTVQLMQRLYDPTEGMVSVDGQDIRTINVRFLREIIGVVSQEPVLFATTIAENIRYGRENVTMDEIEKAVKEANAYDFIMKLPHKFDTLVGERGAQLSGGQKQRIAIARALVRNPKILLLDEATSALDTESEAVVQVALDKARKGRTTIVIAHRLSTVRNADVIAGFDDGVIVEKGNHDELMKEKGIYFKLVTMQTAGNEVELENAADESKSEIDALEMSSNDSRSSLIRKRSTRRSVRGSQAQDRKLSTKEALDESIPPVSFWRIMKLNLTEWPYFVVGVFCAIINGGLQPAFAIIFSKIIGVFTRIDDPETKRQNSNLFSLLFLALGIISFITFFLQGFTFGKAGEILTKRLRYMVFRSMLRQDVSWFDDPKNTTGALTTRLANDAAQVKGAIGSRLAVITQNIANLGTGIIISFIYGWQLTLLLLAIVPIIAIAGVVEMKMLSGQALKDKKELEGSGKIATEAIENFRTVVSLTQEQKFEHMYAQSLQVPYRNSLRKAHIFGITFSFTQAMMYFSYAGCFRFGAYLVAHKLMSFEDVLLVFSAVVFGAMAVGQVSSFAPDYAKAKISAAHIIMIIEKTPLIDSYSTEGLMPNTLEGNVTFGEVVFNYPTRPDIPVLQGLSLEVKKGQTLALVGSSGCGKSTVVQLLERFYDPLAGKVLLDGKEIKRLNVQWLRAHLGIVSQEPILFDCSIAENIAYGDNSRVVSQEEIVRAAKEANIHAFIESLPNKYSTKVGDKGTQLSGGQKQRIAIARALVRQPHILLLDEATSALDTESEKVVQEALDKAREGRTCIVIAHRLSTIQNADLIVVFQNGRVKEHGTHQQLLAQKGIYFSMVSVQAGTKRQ

For `C[C@H](CCC(=O)O)[C@H]1CC[C@H]2[C@@H]3CC[C@@H]4C[C@H](O)CC[C@]4(C)[C@H]3C[C@H](O)[C@]12C` [DCA], the “GLP-1 Concentration (fold increase)” value in [1] is reported as 2.5-fold increase.

Turning to `OC[C@H]1OC(O)[C@H](O)[C@@H](O)[C@@H]1O` (stereo partly drawn) [Glucose], the “GLP-1 Concentration (fold increase), Colon” value in [2] is reported as 10-fold increase. In series [3], the “GLP-1 Concentration (fold increase), SI” value is reported as “(Colon), 2-fold”. The “GLP-1 Concentration (fold increase)” value in series [4] is listed as 3-fold increase.

As to `CCCCCCCC/C=C\CCCCCCCC(=O)O` [Oleic Acid], the “GLP-1 Concentration (fold increase)” value in the series on GLUTag Cells was 4-fold increase.

For the compound `CC[C@]1(O)C[C@@H]2CN(CCc3c([nH]c4ccccc34)[C@@](C(=O)OC)(c3cc4c(cc3OC)N(C)[C@H]3[C@@](O)(C(=O)OC)[C@H](OC(C)=O)[C@]5(CC)C=CCN6CC[C@]43[C@@H]65)C2)C1` [vinblastine], the “increase in intracellular accumulation of rhodamine 123” value is 2.14 fold at MDR1 (P-gp) [5] and 1.84 fold at MDR1 (P-gp) [6].

On to TNF-α, for which the “membrane expression of I-CAM1 and MadCAM1 in intestinal microvascular endothelium” value with Ileum-Chip [7] (100 U/ml) is “increased”. Besides, in the series on Ileum-Chip [7] (setting [10]), the “Apical CCL20 (MIP-3 alpha)” value was found to be 170.92 ± 36.8, the “Apical CCL25 (TECK)” value was 17.11 ± 9.2, the “Apical CXCL8 (IL-8)” value is on record as 16.30 ± 5.9 and the “Apical CXCL11 (1-TAC)” value was 302.01 ± 111.8. In the series on Ileum-Chip [7] (setting [10]), the “Apical CXCLIO (IP-10)” value is listed as 6.34 ± 2.3, the “Basal CCL20 (MIP-3 alpha)” value was 93.93 ± 18.3, the “Basal CCL25 (TECK)” value is given as 117.91 ± 16.1 and the “Basal CXCL8 (IL-8)” value amounted to 1868.99 ± 198.7. In addition, in the series on Ileum-Chip [7] (setting [10]), the “Basal CXCL11 (1-TAC)” value came out at 26.00 ± 9.1 and the “Basal CXCLIO (IP-10)” value was found to be 502.04 ± 287.1. In addition, the “effect on intestinal barrier function” value in the series on Ileum-Chip [8] is given as “does not affect”. In series [9], the “Apical CCL20 (MIP-3 alpha)” value is 0.74 ±0.9, the “Apical CXCL8 (IL-8)” value was 105.5 ± 74.2, the “Apical CXCL11 (1-TAC)” value is given as 0.53 ± 1.0 and the “Apical CXCLIO (IP-10)” value is given as 0.19 ± 0.1. For the same compound, in series [9], the “Basal CCL20 (MIP-3 alpha)” value turned out to be 3.51 ± 2.8, the “Basal CXCL8 (IL-8)” value is reported as 1835.44 ± 282.8, the “Basal CXCL11 (1-TAC)” value is 1.74 ± 1.4 and the “Basal CXCLIO (IP-10)” value was 35.22 ± 20.1.
